Assay results reported in PMC10945809 (Proceedings of the National Academy of Sciences of the …, 2024).

Biological target: T1, human microsomal FMO1 (Homo sapiens, UniProt Q01740)
T1 sequence (Q01740 2-532): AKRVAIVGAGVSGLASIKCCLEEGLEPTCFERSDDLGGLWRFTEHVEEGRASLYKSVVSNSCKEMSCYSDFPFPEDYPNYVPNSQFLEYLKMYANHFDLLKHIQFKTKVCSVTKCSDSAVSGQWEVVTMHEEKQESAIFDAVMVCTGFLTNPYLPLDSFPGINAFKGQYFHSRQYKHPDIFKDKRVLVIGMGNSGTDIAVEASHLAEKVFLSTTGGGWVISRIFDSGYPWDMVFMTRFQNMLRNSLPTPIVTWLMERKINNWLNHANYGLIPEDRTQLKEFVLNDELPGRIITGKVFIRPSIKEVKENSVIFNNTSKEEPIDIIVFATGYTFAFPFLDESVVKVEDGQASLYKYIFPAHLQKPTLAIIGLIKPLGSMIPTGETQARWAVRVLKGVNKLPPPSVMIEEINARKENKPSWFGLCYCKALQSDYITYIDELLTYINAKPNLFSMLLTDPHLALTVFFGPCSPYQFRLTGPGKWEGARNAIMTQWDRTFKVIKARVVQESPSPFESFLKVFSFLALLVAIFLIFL
Test: absorption spectrum
Format: biochemical
Conditions: PBS; microsomal FMO1 as positive control

Cc1cc2nc3c(=O)[nH]c(=O)nc-3n(C[C@H](O)[C@H](O)[C@H](O)COP(=O)(O)OP(=O)(O)OC[C@H]3O[C@@H](n4cnc5c(N)ncnc54)[C@H](O)[C@@H]3O)c2cc1C [FAD]
absorption spectrum: FAD bound to human microsomal FMO1 (orange)
